The test system of experiment [1] is CaBP22. In words: semiquantitative RT-PCR of CaBP22 expression. It is filed as in vivo, Arabidopsis. The method, then: […] ACT8 is shown as loading control. […] (B) Two week old seedlings were sprayed with virulent HpNoco2 24 hours after pre-treatment with 100 uM DCA. Spores were counted 7 days after spray infection. Means and standard errors were calculated from three independent experiments. Mann-Whitney U test (p<0.05) was used to determine significant differences among mutants.
As the CaBP22-induction by DCA is blocked in the wrky70 mutant, this compound can interfere with a signaling component that acts upstream from WRKY70 transcription and either independently of downstream from SA. Based on this DCA targets a WRKY70-dependent branch of the defense signaling network.

Experiment [2] deals with cluster of 131 Arabidopsis genes (Table 1). The experiment is described as follows: Affymetrix ATH1 whole genome microarray of induced transcriptional responses. It is filed as in vivo. The method, then:
This transient activity of DCA functionally discriminates it from INA and allows us to precisely correlate molecular event, such as transcriptional changes, with disease resistance. Therefore we performed a set of microarray experiments with Affymetrix ATH1 Arabidopsis whole genome chips profiling DCA- and INA-induced transcriptional responses at 48 h and 6 d post treatment. […] The reference accession numbers and information can be used by one of skill in the art to obtain the sequences and additional information from public databases available at the time of filing.

Data on one compound can be found in US8603945B2, “Methods and compositions for providing salicyclic acid-independent pathogen resistance in plants” (The Regents of the University of California, priority 2008, dated 2013).

Turning to `Nc1c(Cl)cc(Cl)cc1C(=O)O` [DCA, 3,5-Dichloroanthranilic acid], the “endogenous CaBP22 gene expression” value in experiment [1] (10 uM, wild type) is given as “activates”. Further, in experiment [1] (most Arabidopsis defense signaling mutants), the “CaBP22 expression in most mutants with deficiencies in defense signaling” value is given as “wild type expression”. Also, in experiment [1] (nahG (SA-catabolizing enzyme)), the “effect of nahG transgene on induction of CaBP22” value is recorded as “does not suppress”. For the same compound, the “CaBP22-induction in wrky70 mutant” value in experiment [1] (wrky70 mutant) is reported as “blocked”. The “up-regulation of cluster of 131 genes at 48 h post treatment” value in experiment [2] (48 h post treatment) was “significantly up-regulated”. The “up-regulation of cluster of 131 genes at 6 d post treatment” value in experiment [2] (6 d post treatment) is given as “not at 6 d post DCA treatment”.
